One data set has as its target T1, Gadd45β binding to MKK7 (Homo sapiens, UniProt O14733).
T1 construct: Full-length human (h)MKK7 was expressed as a protein fused to an N-terminal GST tag (GST-MKK7); made in house
T1 sequence (O14733 1-419): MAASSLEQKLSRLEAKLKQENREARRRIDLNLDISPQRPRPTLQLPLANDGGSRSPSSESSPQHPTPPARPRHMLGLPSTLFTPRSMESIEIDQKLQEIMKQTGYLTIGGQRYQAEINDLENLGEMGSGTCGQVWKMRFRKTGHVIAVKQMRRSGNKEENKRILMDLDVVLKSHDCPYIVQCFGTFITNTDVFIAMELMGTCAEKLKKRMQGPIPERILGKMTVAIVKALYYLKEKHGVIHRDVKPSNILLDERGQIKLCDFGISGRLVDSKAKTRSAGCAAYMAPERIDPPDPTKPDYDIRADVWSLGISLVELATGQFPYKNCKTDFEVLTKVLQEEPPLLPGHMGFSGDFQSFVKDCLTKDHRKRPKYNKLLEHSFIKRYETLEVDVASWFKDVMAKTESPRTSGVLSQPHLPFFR
As to the kind of experiment: ELISA Gadd45β/MKK7 competition assay. The method, then:
(§1) Values express the percentage of live cells present in the treated cultures relative to the live cells present in the respective untreated cultures and denote means±SD ([WM]; n=3). UT, untreated. […] Values express the percentage of inhibition of Gadd45β binding to MKK7 relative to the binding measured in the absence of peptide. […] Co-immunoprecipitations (IP) were performed using an anti-FLAG antibody (a-FLAG); western blots (WB) were developed using an anti-HA or an anti-MKK7 antibody, as shown.
Proteins were purified as described in Tornatore et al., 2008. Individual peptides were synthesised as reported in Sandomenico et al., 2012. […] Peptide identity and purity were determined using liquid chromatography-mass spectrometry (LC-MS). […]
Recombinant proteins were purified as described previously (Tornatore et al., 2008). Briefly, full-length human (h)GADD45β was expressed as a protein fused to a poly-histidine (His6) tag and purified by affinity chromatography using His-Trap columns (GE Healthcare). […] Full-length human (h)MKK7 was expressed as a protein fused to an N-terminal GST tag (GST-MKK7), purified using GST-Trap as above, and then used for ELISA analyses. […] The kinase domain (KD) of hMKK7 (amino acids 101-405) was expressed as a protein fused to an N-terminal His6 tag in E. coli (BL21[DE3] strain) using the pETDuet-1 vector (Novagen). […]
A general note: In an ELISA, binding on a coated surface is turned into a signal by an enzyme label.

Data set [1] concerns drug-resistant multiple myeloma cell lines. As to the kind of experiment: [3H]thymidine incorporation assay, sensitive and drug-resistant multiple myeloma cell lines. The format is cell-based, human. The settings on record: 6-day treatment; MM1.R, AMO-1a, MM1/R10R, U266/R10R. From the text: Matching pairs of sensitive (parental) and drug-resistant multiple myeloma cell lines were as follows: MM1.S (parental) and MM1.R (dexamethasone-resistant); AMO-1 (parental) and AMO-1a (bortezomib-resistant); MM1.S (parental) and MM1/R10R (lenalidomide-resistant); U266 (parental) and U266/R10R (lenalidomide-resistant). […] For clarity purposes, the same data for the parental MM1.S MM multiple myeloma cell line are shown as control for the dexamethasone-resistant (MM1.R) MM multiple myeloma cell line and the lenalidomide-resistant (MM1/R10R) MM multiple myeloma cell line.
(In general: Incorporation of labelled thymidine or its analogues reports DNA synthesis.)

Data set [2] deals with multiple myeloma cell lines. Kind of data set: [3H]thymidine incorporation assay, survival of multiple myeloma cell lines. The format is cell-based, human. The settings on record: 6-day treatment; all lines tested apart from RPMI-8226 and KMM-1. The method, then:
as §1
[^3H]Thymidine incorporation and trypan blue exclusion assays were performed using standard methods (Mauro et al., 2011). […] Apoptosis analyses were performed using PI staining as described in Mauro et al., 2011. Additional details are provided in the Supplemental Experimental Procedures.

As to `CC(=O)N[C@H](Cc1ccc(O)cc1)C(=O)N[C@H](CCCNC(=N)N)C(=O)N[C@H](Cc1ccccc1)C(N)=O` [DTP3, Acetyl-Tyr-Arg-Phe-NH2], the Gadd45β/MKK7 inhibitor activity result at Gadd45β binding to MKK7 is listed as “sub-nM”. On Gadd45β binding to MKK7 (before and after 48-hr pre-incubation with human serum at 37° C.), the stability in vitro result is given as “high stability in vitro”. For the same compound, the “efficacy in multiple myeloma cell lines resistant to dexamethasone, bortezomib and lenalidomide” value in data set [1] is listed as “retained full therapeutic efficacy”. Also, the “cytotoxic activity in multiple myeloma cell lines” value in data set [2] was “potent and selective capacity to kill multiple myeloma cells via apoptosis”.

These data come from patent publication US20170240592A1, “GADD45BETA/MKK7 INHIBITOR FOR THE TREATMENT OF A RESISTANT HAEMATOLOGICAL MALIGNANCY” (IMPERIAL INNOVATIONS LIMITED, priority 2014, published 2017).
